In one assay the target is D816V Kit (Homo sapiens (Human), UniProt P10721, D816V). Put plainly: Kit D816V assay at Km (Caliper electrophoretic mobility shift). It is filed as biochemical. Conditions: D816V Kit 0.5 nM, 15 uM ATP (Km), 1 uM Srctide, 25 C, 90 minutes; read-out: INH-KITD816V ENZ-KM IC50 (nM) (Num). A digest of the protocol:
(§1)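 Read-out is the ratio of phosphorylated to unphosphorylated fluorescent peptide, resolved by mobility shift on a Caliper EZ Reader 2.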

A further assay concerns the target wild type Kit (Homo sapiens (Human), UniProt P10721). The assay can be described thus: Kit wild type assay at Km (Caliper electrophoretic mobility shift). Conditions: wild type Kit 2 nM, 400 uM ATP (Km), 1 uM Srctide, 25 C, 90 minutes; read-out: INH-KITWT ENZ-KM IC50 (nM) (Num). In kind it is biochemical. In outline:
as §1

The subject of another assay is HMC1.2 cells. Put plainly: HMC1.2 Proliferation Assay (CellTiter-Glo). Conditions: 72 h, read-out: HMC1.2 Proliferation IC50. (In ATP-based viability assays light output follows the ATP content of the culture.)
Assay [1] concerns the target Kit D816V kinase activity (Kit autophosphorylation at tyrosine 719) (Homo sapiens (Human), UniProt P10721, D816V/V560G). The assay can be described thus: HMC1.2 Autophosphorylation Assay (AlphaLISA phospho-Y719 c-Kit). (Bead proximity is the source of the signal in Alpha formats.)
Protocol: 10,000 HMC1.2 cells were incubated in 22 ul culture media (phenol-red free IMDM, no serum) in each well of a 384-well plate and serum starved overnight in a tissue culture incubator (5% CO2, 37° C.). […] After 90 minutes, 6 ul of 5× AlphaLISA Lysis Buffer (Perkin Elmer) supplemented with a protease and phosphatase inhibitor cocktail (Cell Signaling Technologies) was added to each well and shaken at 450 rpm for 15 minutes at 4° C. […] 10 ul of 100 ug/ml streptavidin donor beads (Perkin Elmer) were added to each well, blocked from light with aluminum adhesive and shaken at 300 rpm at room temperature for 2 hours. Fluorescence signal was obtained on Envision (Perkin Elmer) by AlphaScreen 384 well HTS protocol.

Structures are written as SMILES.

D816V Kit, sequence (P10721 26-976 D816V): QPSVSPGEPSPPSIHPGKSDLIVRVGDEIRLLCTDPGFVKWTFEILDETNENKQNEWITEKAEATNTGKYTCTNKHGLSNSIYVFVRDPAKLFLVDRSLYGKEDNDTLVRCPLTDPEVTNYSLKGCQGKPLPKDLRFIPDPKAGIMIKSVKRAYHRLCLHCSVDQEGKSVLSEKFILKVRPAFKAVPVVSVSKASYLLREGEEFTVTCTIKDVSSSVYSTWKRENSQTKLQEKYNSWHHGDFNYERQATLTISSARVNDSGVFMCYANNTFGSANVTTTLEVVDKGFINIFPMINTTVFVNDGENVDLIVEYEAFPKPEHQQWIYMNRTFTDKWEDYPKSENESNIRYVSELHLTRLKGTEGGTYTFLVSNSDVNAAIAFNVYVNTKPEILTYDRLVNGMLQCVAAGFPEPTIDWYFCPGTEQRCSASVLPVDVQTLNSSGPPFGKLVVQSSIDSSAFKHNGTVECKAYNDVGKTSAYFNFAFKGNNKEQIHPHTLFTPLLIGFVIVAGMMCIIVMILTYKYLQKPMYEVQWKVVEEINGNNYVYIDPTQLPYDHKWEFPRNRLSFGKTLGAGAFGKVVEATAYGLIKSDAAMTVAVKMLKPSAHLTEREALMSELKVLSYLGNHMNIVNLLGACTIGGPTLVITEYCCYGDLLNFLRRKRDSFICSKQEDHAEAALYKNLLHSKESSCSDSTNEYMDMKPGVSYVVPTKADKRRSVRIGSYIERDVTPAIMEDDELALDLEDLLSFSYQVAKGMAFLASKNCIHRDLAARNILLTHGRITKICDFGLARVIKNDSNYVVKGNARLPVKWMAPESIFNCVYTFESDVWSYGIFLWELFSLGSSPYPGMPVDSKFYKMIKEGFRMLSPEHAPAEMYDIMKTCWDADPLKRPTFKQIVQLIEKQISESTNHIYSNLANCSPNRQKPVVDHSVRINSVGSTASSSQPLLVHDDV
Kit D816V kinase activity (Kit autophosphorylation at tyrosine 719), sequence (P10721 26-976 V560G/D816V): as the sequence (P10721 26-976 D816V) above, with V535G counted along it
wild type Kit, sequence (P10721 26-976): as the sequence (P10721 26-976 D816V) above, with V791D counted along it
Protocol for HMC1.2 cells: 1000 HMC1.2 cells were incubated in 22 ul culture media (IMDM, 10% calf serum with Iron) in each well of a 384-well plate overnight in a tissue culture incubator (5% CO2, 37° C.). […] After 3 days incubation in tissue culture incubator, 25 ul CellTiter-Glo (Promega) solution was added to each well for ATP/cell viability measurement.
In addition, these compounds were assayed for their ability to inhibit the dependence of these cells on Kit kinase activity by disrupting their growth and proliferation.

With `COc1cc2ncnc(N3CCN(c4ncc(Cc5ccccc5)cn4)CC3)c2cc1OCC1CCN(C)CC1` [Compound 112], the IC50 on D816V Kit is below 1 nM; at wild type Kit, 11 to 100 nM; in the assay with HMC1.2 cells it was 1000 to 10000 nM; in assay [1], 10 to 100 nM.

As for `COc1cc2ncnc(N3CCN(c4ncc(Cc5ccccc5)c(=O)[nH]4)CC3)c2cc1OCC1CNCCO1` (stereo not shown) [Compound 119], the IC50 on D816V Kit was below 1 nM; at wild type Kit, below 10 nM; with HMC1.2 cells, above 10000 nM; in assay [1], 1000 to 10000 nM.

With `COc1cc2c(N3CCN(c4ncc(Cc5ccccc5)cn4)CC3)ncnc2cc1OCCCN1CCCCC1` [Compound 123], the IC50 lay in the range of 10 to 100 nM at D816V Kit, 100 to 1000 nM on wild type Kit, 1000 to 10000 nM in the assay on HMC1.2 cells and 1000 to 10000 nM in assay [1].

Regarding `COc1cc2ncnc(N3CCN(c4ncc(Cc5ccccc5)c(N)n4)CC3)c2cc1OCC1CCN(C)CC1` [Compound 125], the IC50 on D816V Kit is below 1 nM; on wild type Kit, below 10 nM; with HMC1.2 cells, 100 to 1000 nM; in assay [1] it was below 10 nM.

Consider `COc1cc2c(N3CCN(c4ncc(Cc5ccccc5)cn4)CC3)ncnc2cc1OCCCN1CCN(C)CC1` [Compound 134], for which the IC50 was below 1 nM at D816V Kit, below 10 nM at wild type Kit, 100 to 1000 nM in the assay on HMC1.2 cells and 10 to 100 nM in assay [1].

`COc1cc2ncnc(N3CCN(c4ncc(Cc5ccccc5)cn4)CC3)c2cc1OCCCN1CCN(C)CC1` [Compound 136]: the IC50 on D816V Kit was below 1 nM; on wild type Kit it was 11 to 100 nM; with HMC1.2 cells it was 1000 to 10000 nM; in assay [1] it was 100 to 1000 nM.

With `COc1cc2c(N3CCN(c4ncc(Nc5ccc(C)cc5)cn4)CC3)ncnc2cc1OCCCN1CCCCC1` [Compound 137], the IC50 on D816V Kit is 1.01 to 10 nM; at wild type Kit, 11 to 100 nM; in the assay on HMC1.2 cells, 1000 to 10000 nM; in assay [1], 100 to 1000 nM.

The values above are taken from US9994552B2, “Compositions useful for treating disorders related to kit” (BLUEPRINT MEDICINES CORPORATION, priority 2013, dated 2018).
